Measured values taken from ChEMBL document CHEMBL1140713, “2,3-dihydro-6,7-dihydroxy-1H-isoindol-1-one-based HIV-1 integrase inhibitors” (J Med Chem, 2008).

Assays:
[1] = target: T1, Human immunodeficiency virus type 1 integrase (Human immunodeficiency virus 1, UniProt Q7ZJM1); test: Inhibition of recombinant HIV1 integrase-mediated 3'-processing activity in presence of magnesium
[2] = target: T1, Human immunodeficiency virus type 1 integrase; test: Inhibition of recombinant HIV1 integrase strand transfer activity in presence of magnesium
[3] = target: T1, Human immunodeficiency virus type 1 integrase; test: Inhibition of recombinant HIV1 integrase strand transfer activity in presence of manganese
[4] = target: T1, Human immunodeficiency virus type 1 integrase; test: Inhibition of recombinant HIV1 integrase-mediated 3'-processing activity in presence of manganese
[5] = tested on: Human immunodeficiency virus 1; test: Antiviral activity against HIV1 in cell based assay; assay type: functional, organism-based

T1 sequence (Q7ZJM1 whole entry): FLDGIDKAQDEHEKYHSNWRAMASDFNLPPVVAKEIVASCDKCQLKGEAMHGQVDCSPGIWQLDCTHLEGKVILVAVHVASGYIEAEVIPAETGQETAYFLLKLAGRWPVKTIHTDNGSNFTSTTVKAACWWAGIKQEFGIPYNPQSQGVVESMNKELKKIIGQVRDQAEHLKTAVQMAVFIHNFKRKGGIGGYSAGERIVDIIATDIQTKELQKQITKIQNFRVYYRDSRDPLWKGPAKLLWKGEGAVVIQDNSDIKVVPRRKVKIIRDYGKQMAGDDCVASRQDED

Compound | IC50 [1] [µM] | IC50 [2] [µM] | IC50 [3] [µM] | IC50 [4] [µM] | EC50 [5] [µM]
O=C(NN1Cc2ccc(O)c(O)c2C1=O)c1ccc(F)cc1 | > 333 | 170 |  |  | 
O=C(NCc1ccc(F)cc1)c1cccc(O)c1O | > 333 | 108 |  |  | > 30
NNC(=O)c1cccc(O)c1O | > 333 | > 333 | 111 | > 333 | 
O=C1c2c(ccc(O)c2O)CN1N1C(=O)c2cccc(O)c2C1=O | 42 | 11 |  |  | 
O=C1c2c(ccc(O)c2O)CN1Cc1ccccc1 | > 333 | 12.3 |  |  | 0.68
O=C1c2c(ccc(O)c2O)CN1Cc1ccc(F)cc1 | 282 | 10 |  |  | 0.77
O=C1c2c(ccc(O)c2O)CN1Cc1ccc(F)c(Cl)c1 | 13 | 0.16 |  |  | 
O=C1c2c(ccc(O)c2O)CN1Cc1cccc(Cc2ccccc2)c1 | > 333 | 172 |  |  | 
COc1cccc(/C=N/NC(=O)c2cccc(O)c2O)c1OC | 112 | 68 | 18 | > 333 | 
COc1cccc(C(=O)NNC(=O)c2cccnc2)c1O | > 333 | > 333 | > 333 | > 333 | 
COc1cccc(C(=O)NN)c1O | > 333 | > 333 | > 333 | > 333 | 
O=C(NNC(=O)c1ccccc1O)c1ccccc1O | > 333 | > 333 | 1.8 | 3.6 | 2.2
O=C1c2c(ccc(O)c2O)CN1Cc1cccc(CBr)c1 | 37 | 13 |  |  | 
O=C(NCCNC(=O)c1cccc(O)c1O)c1cccc(O)c1O | 85 | 50 |  |  | 
O=C(NCCCNC(=O)c1cccc(O)c1O)c1cccc(O)c1O | 33 | 31 |  |  | 
O=C(N/N=C/c1cccc(O)c1O)c1cccc(O)c1O | 61 | 54 | 1.3 | 11 | 
O=C(NN1Cc2ccc(O)c(O)c2C1=O)c1ccccc1 | > 333 | 129 |  |  | 
O=C1c2c(ccc(O)c2O)CN1N1C(=O)c2ccccc2C1=O | > 333 | > 333 |  |  | 
O=C(NN1Cc2ccc(O)c(O)c2C1=O)c1cccc(O)c1O | > 333 | 6 |  |  | 
O=C1c2c(ccc(O)c2O)CN1N(S(=O)(=O)c1ccc(F)cc1)S(=O)(=O)c1ccc(F)cc1 | > 333 | 33 |  |  | 
COc1cccc(C(=O)N/N=C/c2ccc(F)cc2)c1O | > 333 | > 333 |  |  | 
O=C1c2c(ccc(O)c2O)CN1/N=C/c1ccc(F)cc1 | > 333 | > 333 |  |  | 
O=C1c2c(ccc(O)c2O)CN1N(S(=O)(=O)c1ccc(O)c(O)c1)S(=O)(=O)c1ccc(O)c(O)c1 | 1.6 | 0.21 |  |  | 
O=C(NNC(=O)c1cccc(O)c1O)c1cc2ccccc2cc1O | 72 | 32 | 16 | 19 | 
O=C1c2c(ccc(O)c2O)CN1Cc1cccc2ccccc12 | 61 | 0.74 |  |  | 

Continued, values first:

IC50 [1] [µM] | IC50 [2] [µM] | IC50 [3] [µM] | IC50 [4] [µM] | EC50 [5] [µM] | Compound
> 333 | 293 |  |  |  | O=C(NN1Cc2ccc(O)c(O)c2C1=O)c1ccccc1O
69 | 21 |  |  |  | O=C1c2c(ccc(O)c2O)CN1NS(=O)(=O)c1ccc(F)cc1
138 | 44 | 9 | 11 |  | COc1cccc(C(=O)NNC(=O)c2cccc(O)c2O)c1O
> 333 | > 333 | 112 | > 333 |  | O=C(NNC(=O)c1cccc(O)c1O)c1cccnc1
7 | 1.2 |  |  |  | O=C1c2c(ccc(O)c2O)CN1N1Cc2ccc(O)c(O)c2S1(=O)=O
> 333 | > 333 |  |  |  | O=C1c2ccc(O)c(O)c2CN1Cc1ccc(F)cc1
> 333 | 28 |  |  |  | O=C1c2c(ccc(O)c2O)CN1CCc1ccccc1
> 333 | > 333 |  |  |  | COc1cccc(C(=O)NCc2ccc(F)cc2)c1O
78 | 0.6 |  |  |  | O=C1c2c(ccc(O)c2O)CN1N1C(=O)c2ccc(O)c(O)c2C1=O
87 | 54 |  |  |  | O=C1c2c(ccc(O)c2O)CN1/N=C/c1cccc(O)c1O
124 | 41 |  |  |  | O=C1c2c(ccc(O)c2O)CN1N1Cc2ccc(O)c(O)c2C1=O
6.9 | 1.6 | 5 | 8.9 | 1.67 | O=C(NNC(=O)c1cccc(O)c1O)c1cccc(O)c1O
245 | 123 | 22 | 26 |  | COc1cccc(C(=O)NNC(=O)c2cccc(OC)c2O)c1O
> 333 | > 333 | 8 | 12 |  | COc1cccc(C(=O)NNC(=O)c2cc3ccccc3cc2O)c1O
> 333 | > 333 |  |  |  | O=C1c2cccc(O)c2C(=O)N1Cc1ccc(F)cc1
6.7 | 0.81 |  |  |  | O=C1c2c(ccc(O)c2O)CN1N1C(=O)c2cc(O)c(O)cc2C1=O
> 333 | > 333 | 0.5 | 2.8 | 4.8 | O=C(NNC(=O)c1cccc(O)c1O)c1ccccc1O
186 | 53 |  |  |  | O=C1c2c(ccc(O)c2O)CN1N1C(=O)c2ccc(F)cc2C1=O
